The values that follow come from US12509421B2, “Preparation and application of deuterated 4-phenyl-4-piperidinols” (priority 2022, dated 2025).

For one data set, the target named is hERG potassium channel (Homo sapiens, UniProt Q12809). Briefly: hERG potassium channel whole-cell patch clamp (HEK293). Particulars: for IC50: HEK293 cells stably expressing hERG, whole-cell patch clamp, room temperature, read-out: Half-inhibition concentration of compounds to be tested on hERG (IC50). On the set-up: expressed in transfected cells; host or cells: HEK293 cell line. In kind it is cell-based. From the text:
The rapidly activated potassium channel encoded by human ether-a-go-go-related gene (hERG) is an important ion channel involved in the formation of phase 3 repolarization of myocardial action potential. […] Drug-induced delayed ventricular repolarization may cause fatal arrhythmia-torsade de pointes in some cases. According to statistics, about 25-40% of the lead compounds show different degrees of hERG-related toxicity, and many drugs are withdrawn from the market because they may lead to the risk of QT interval extension. At present, National Medical Products Administration also requires hERG/IKr safety evaluation data before clinical trial application (IND) of new drugs under study. • 1. Whole-cell patch clamp technique is used to study the inhibitory effect of compounds on hERG potassium channels: • 1) the compound to be tested is stored with physiological saline prepared into 10 mM liquid. The test stock solution is diluted with physiological saline into 3 mM, 1 mM and 0.3 mM diluents in turn. […] The old culture medium removed and is washed once with PBS, then added with 1 mL TrypLE™ Express solution and incubated at 37° C. for about 0.5 minutes. When the cells are detached from the bottom of the dish, about 5 ml complete medium preheated is added at 37° C. The cell suspension is gently blown with a straw to separate the aggregated cells. The cell suspension is transferred to a sterile centrifuge tube and centrifuged at 1000 rpm for 5 minutes to collect cells. […] The clamping voltage is depolarized from −80 mV to −50 mV for 0.5 seconds (as leakage current detection), then stepped to 30 mV for 2.5 seconds, and then quickly recovered to −50 mV for 4 seconds, which can excite the tail current of hERG channel. Data are collected repeatedly every 10s to observe the effect of drugs on hERG tail current. 0.5 seconds-50 mV stimulation is used as leakage current detection. The test data are collected by IPA amplifier (Sutter Instrument) and stored in SutterPatch software.
Capillary glass tube is drawn into recording electrode by microelectrode drawing instrument. Under the inverted microscope, the microelectrode manipulator is operated to contact the recording electrode with the cell, and negative pressure suction is given to form a GΩ seal. After the GΩ seal is formed, rapid capacitance compensation is carried out, and then negative pressure is continuously applied to break the cell membrane, forming a whole cell recording mode. Then the slow capacitance is compensated and the film capacitance and series resistance are recorded. No leakage compensation is given.
When the hERG current recorded in the whole cell is stable, the drug is administered, and the next concentration is detected after each drug concentration acts for 5 minutes (or the current is stable), and multiple concentrations are detected for each test compound. The cover glass covered with cells is placed in the recording bath in an inverted microscope, and the test compound and the external liquid containing no compound flowed through the recording bath from low concentration to high concentration by gravity perfusion method, so as to act on the cells, and liquid exchange is carried out by using a vacuum pump during recording. The current detected by each cell in the external fluid without compounds is used as its own control group.
At least two cells are used to detect each concentration independently and repeatedly twice. All electrophysiological tests are conducted at room temperature.
Firstly, the current after each drug concentration and the blank control current are standardized
[formula] followed by the calculation of the inhibition rate
[formula] corresponding to each drug concentration, the average and standard deviation for each concentration, and the semi-inhibition concentration of each compound with the following equation: […]
The dose-dependent effect is nonlinear fitted by the above equation, and IC50 is semi-inhibitory concentration.

In the next data set the target is T1, δOR (Homo sapiens, UniProt P41143).
T1 construct: expressed in transfected cells; host or cells: CHO cells
Briefly: Opioid receptor competitive binding test, δOR. Particulars: compound at 10 μM; [3H]-labeled ligand; CHO cell membranes; ± SD of three measurements. As to the method: (§1) CHO cells expressing p opioid receptor, δ opioid receptor and K opioid receptor are cultured in a 10 cm^2 Petri dish (F-12 medium+10% newborn bovine serum) for several days, and the culture solution is sucked after the cells grew to the bottom of the dish. 3 ml PBS/EDTA solution (0.1M NaCl, 0.01M NaH2PO4, 0.04% EDTA) is added for digestion for 3-5 minutes. The cells are blown with a straw to get fall off completely, collected in a 40 ml centrifuge tube, centrifuged at 5000 rpm for 5 minutes, and removed with the supernatant. The centrifuge tube is added with ice-cold homogenate (50 mM HEPES PH 7.4, 3 mM MgCl2, 1 mM EGTA). The solution and precipitate are transferred to homogenizer for homogenization; Then the homogenate is transferred into a centrifuge tube, centrifuged at 18000 rpm for 15 minutes, and centrifuged twice; the obtained precipitate is added with an appropriate amount of buffer solution of 50 mM Tris-HCl and pH 7.4, homogenized and sub-packaged in centrifuge tubes. The product is stored in a refrigerator at −70° C. for later use.
(§2) 20-30 μg expressed membrane receptor protein and [3H]-labeled ligand (1-2 nM) are added to the total binding tube, added with 1 μM of corresponding ligand to the corresponding nonspecific binding tube. Various screened opioid ligand drugs (see the drug compounds in Table 1 below) are added to the sample tube with 100 μL final volume. The sample is incubated at 30° C. for 30 minutes, and the reaction is terminated in ice water. The glass fiber filter paper gF/C (whatman) is used for negative pressure filtration on Millipore sample collector. The sample is eluted with 4 ml 50 mm tris-HCl (pH 7.4) for three times, dried with the filter paper, put in 0.5 ml Eppendorf tube and added with 0.5 ml lipophilic scintillation liquid. The radioactive intensity is measured with PERKIN ELMER PRI-CARB 2910 liquid scintillation counter with calculation of the inhibition rate. The experiment is repeated for more than three times, with three compound tubes in each group. Inhibition rate(or binding rate)=(total binding rate dpm−sample tube dpm)/(total binding tube dpm-nonspecific binding tube dpm)×100%
(§3) IC50 is calculated with Prism 5.0 software. The Ki value is calculated according to the following formula: Ki=IC50/(1^+[L]/Kd), wherein [L] is the concentration of the added labeled ligand, and Kd is the equilibrium dissociation parameter of the labeled ligand.

The next data set has as its system Female Kunming mice. Briefly: Hot plate analgesia test in mice. In kind it is in vivo. Particulars: intraperitoneal, 55° C. hot plate; for ED50: Mus musculus, ip; for Maximum analgesic effective percentage (% MPE), hot plate: 10 mg/kg. As to the method: Female Kunming mice weighing about 20 g are placed on a hot plate instrument preheated to 55° C., and the latency of licking hind feet or lifting hind feet is used as the pain threshold index. Animals are screened before the experiment, and animals with latency less than 5 s or more than 30 s are excluded. To prevent foot burns, the longest observation time is set to 60s. The basic pain threshold is the average of two measurements, and the interval between the two measurements is 5 minutes. The pain threshold of mice in each group is determined at 15 minutes, 30 minutes, 60 minutes and 120 minutes after intraperitoneal administration. The effective percentage of analgesia (% MPE) is calculated according to the following formula
[formula] According to the effective percentage of analgesia, the ED50 value is calculated by graphpad prism 5.0 software.

A further data set has as its target T2, μOR (Homo sapiens, UniProt P35372).
T2 construct: expressed in transfected cells; host or cells: CHO cells
Put plainly: Opioid receptor competitive binding test, μOR. Particulars: compound at 10 μM; [3H]-labeled ligand; CHO cell membranes; ± SD of three measurements. As to the method:
as §1, §2, §3

The next data set deals with T3, κOR (Homo sapiens, UniProt P41145).
T3 construct: expressed in transfected cells; host or cells: CHO cells
Put plainly: Opioid receptor competitive binding test, κOR. Particulars: compound at 10 μM; [3H]-labeled ligand; CHO cell membranes; ± SD of three measurements. As for the experimental part:
as §1, §2, §3

A further data set addresses CYP 3A4 (Homo sapiens, UniProt P08684). Particulars: read-out: CYP 3A4 IC50, human liver microsomes.
Another data set addresses CYP 2C9 (Homo sapiens, UniProt P11712). Briefly: Inhibition of cytochrome P450 enzyme in human liver microsomes, CYP 2C9. Particulars: read-out: CYP 2C9 IC50; human liver microsomes; substrate Diclofenac.
Another data set concerns the target T4, CYP 1A2 (Homo sapiens, UniProt P05177).
T4 sequence (P05177 1-516): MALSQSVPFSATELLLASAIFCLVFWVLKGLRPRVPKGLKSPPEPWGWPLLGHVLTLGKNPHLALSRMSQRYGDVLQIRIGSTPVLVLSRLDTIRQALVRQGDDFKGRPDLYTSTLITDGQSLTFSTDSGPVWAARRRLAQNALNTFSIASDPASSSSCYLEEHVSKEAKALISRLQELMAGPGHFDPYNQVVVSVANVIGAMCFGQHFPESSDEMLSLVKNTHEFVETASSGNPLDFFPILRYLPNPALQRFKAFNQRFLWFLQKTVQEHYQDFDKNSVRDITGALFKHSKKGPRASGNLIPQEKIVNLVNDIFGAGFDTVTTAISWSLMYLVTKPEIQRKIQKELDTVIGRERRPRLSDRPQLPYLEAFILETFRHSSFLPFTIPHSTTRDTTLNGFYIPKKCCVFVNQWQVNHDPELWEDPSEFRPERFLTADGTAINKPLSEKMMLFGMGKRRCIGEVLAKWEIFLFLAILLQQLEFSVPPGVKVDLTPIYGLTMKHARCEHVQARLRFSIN
Briefly: Inhibition of cytochrome P450 enzyme in human liver microsomes, CYP 1A2. Particulars: read-out: CYP 1A2 IC50; human liver microsomes; substrate Finacetin.

For another data set, the target named is CYP 2C19 (Homo sapiens, UniProt P33261). Briefly: Inhibition of cytochrome P450 enzyme in human liver microsomes, CYP 2C19. Particulars: read-out: CYP 2C19 IC50; human liver microsomes; substrate (S)-mephenytoin.
Another data set concerns the target CYP 2D6 (Homo sapiens, UniProt P10635). Put plainly: Inhibition of cytochrome P450 enzyme in human liver microsomes, CYP 2D6. Particulars: read-out: CYP 2D6 IC50; human liver microsomes; substrate Dextromethorphan.

Where a name gives a salt, the structure may show the parent alone. Read-outs that look alike come from different tables or passages of the source.

For `[2H]C([2H])([2H])Oc1cccc(C2(O)CCN(C(=O)Cc3cc(F)c(F)cc3F)CC2CN(C([2H])([2H])[2H])C([2H])([2H])[2H])c1` (stereo not drawn) [I-7hydrochloride], at hERG potassium channel, the “hERG inhibition grade” value is given as “μM((Weak inhibition)” and the IC50 amounted to 21.6 µM. The compound further registered a δOR binding rate at δOR of 9.9 ± 0.5%. The compound also came in with an ED50 in the data set on Female Kunming mice of 0.89 mg/kg. The compound further came in with a μOR binding rate on μOR of 20.7 ± 2.2%. In addition, the κOR binding rate at κOR is recorded as 15.9 ± 0.7%.

On to `[2H]C([2H])([2H])N(CC1CN(S(=O)(=O)Cc2ccccc2)CCC1(O)c1cccc(OC)c1)C([2H])([2H])[2H]` (stereo not drawn) [I-4hydrochloride], for which, at hERG potassium channel, the “hERG inhibition grade” value is listed as “μM((Weak inhibition)” and the IC50 is 11 µM. The δOR binding rate on δOR is 10.1 ± 0.6%. Besides, in the data set on Female Kunming mice, the “Maximum analgesic effective percentage (% MPE), hot plate” value is on record as 100%. This compound also came in with a μOR binding rate on μOR of 25.9 ± 3.9%. For the same compound, the κOR binding rate on κOR was found to be 18.5 ± 3.2%.

As to “1-(4-hydroxy-4-(3-methoxyphenyl)-3-(((methyl-d3)amino)methyl)-1-piperidinyl)-2(2,4,5-trifluorophenyl)ethyl-1-one [I-5hydrochloride]”, at hERG potassium channel, the “hERG inhibition grade” value is “μM((Weak inhibition)” and the IC50 was 13.5 µM. Also, at δOR, the δOR binding rate came to 12.5 ± 2.9%. Besides, the “ED50, hot plate” value in the data set on Female Kunming mice is 0.75 mg/kg. This compound also came in with a μOR binding rate at μOR of 22.6 ± 1.7%. The same compound yielded a κOR binding rate at κOR of 19.1 ± 1.2%.

As to `[2H]C([2H])([2H])Oc1cccc(C2(O)CCN(S(=O)(=O)Cc3ccccc3)CC2CN(C([2H])([2H])[2H])C([2H])([2H])[2H])c1` (stereo not drawn) [I-3hydrochloride], at hERG potassium channel, the “hERG inhibition grade” value was “μM((Weak inhibition)” and the IC50 was found to be 16.6 µM. The compound further yielded a δOR binding rate on δOR of 8.6 ± 1.2%. Moreover, the median effective dose (ED50) in the data set with Female Kunming mice stood at 0.82 mg/kg. For the same compound, the μOR binding rate on μOR is 22.75 ± 2.3%. The compound also had a κOR binding rate on κOR of 14.9 ± 0.9%.

As to `COc1cccc([C@]2(O)CCN(S(=O)(=O)Cc3ccccc3)C[C@H]2CN(C)C)c1.Cl` [Example 20 of CN201911076305.X, (3R, 4S)-1-(benzylsulfonyl)-3-(dimethylamino)methyl)-4-(3-methoxyphenyl)-4-piperidinol hydrochloride, reference compound], the IC50 is 32.3 µM on CYP 3A4 (substrate midazolam); 46.4 µM on CYP 3A4 (substrate testosterone); more than 50 µM on CYP 2C9; more than 50 µM on CYP 1A2; more than 50 µM on CYP 2C19; 9.61 µM on CYP 2D6.

Take `[2H]C([2H])([2H])N(C)CC1CN(S(=O)(=O)Cc2ccccc2)CCC1(O)c1cccc(OC)c1` (stereo not drawn) [I-1hydrochloride]: on hERG potassium channel, the “hERG inhibition grade” value is listed as “μM((Weak inhibition)” and the IC50 turned out to be 12.9 µM. The same compound displayed a δOR binding rate on δOR of 11.4 ± 1.7%. Also, in the data set with Female Kunming mice, the ED50 stood at 0.62 mg/kg. Also, the μOR binding rate on μOR is 23.95 ± 3.8%. Besides, at κOR, the κOR binding rate is listed as 22.5 ± 3.2%.

Turning to `[2H]C([2H])([2H])N(CC1CN(C(=O)Cc2cc(F)c(F)cc2F)CCC1(O)c1cccc(OC)c1)C([2H])([2H])[2H]` (stereo not drawn) [I-8hydrochloride], on hERG potassium channel, the “hERG inhibition grade” value is on record as “μM((Weak inhibition)” and the IC50 amounted to 16.8 µM. In addition, the δOR binding rate at δOR was 8.2 ± 0.9%. Also, the “Maximum analgesic effective percentage (% MPE), hot plate” value with Female Kunming mice is 100%. On μOR, the μOR binding rate worked out at 22.8 ± 2.8%. The same compound gave a κOR binding rate on κOR of 16.4 ± 2.6%.
